Data reported in patent US8357385B2, “Combination therapy for the treatment of bacterial infections” (Interface Biologics Inc., priority 2008, dated 2013).
≈ marks a conversion by molar mass, not a printed value. Like-named read-outs stand apart in the source and are kept apart here. Peptide text beside a SMILES is read from it.

Columns and labels:
Assay type in all cases: cell-based
E. coli = assay: microbe, parasite or virus in culture
Protocol: (§1) Broth dilution method was used to measure quantitatively the in vitro activity of an antimicrobial agent against a given bacterial isolate. First, a series of tubes/wells were prepared with a broth medium to which various concentrations of the antimicrobial agents were added. The tubes/wells were then inoculated with standardized suspension of the test organism. After overnight incubation at 35±2° C., the tests were examined and the minimum inhibitory concentration (MIC) was determined. The procedures were performed under aseptic conditions. Stock culture: Stock cultures were maintained in Mueller Hinton Broth containing 15% Glycerol and stored at −80° C. Stock cultures were sub-cultured on to Mueller Hinton Agar (MHA), and incubated overnight at 37° C. […] Washing of cells: the cells were washed with PBS (pH 7.1) by centrifuging at 3000 rpm for 10 minutes. A cell suspension in Mueller Hinton broth (MHB) having a turbidity equivalent to a 0.5 McFarland turbidity standard was prepared using a Beckman Coulter DU 800 Spectrophotometer measuring at 600 nm wavelength. This is a suspension containing approximately […] of microbe. The suspension was diluted in MH broth so that, after dilution, the tube contained approximately 5×10^6 CFU/mL, and after inoculation, each well contains approximately 5×10^5 CFU/mL. Broth dilution procedure: small volumes of MH broth dispensed in sterile, polystyrene, non-pyrogenic tissue culture plates, 96 well, flat bottoms with low evaporation lid were prepared (each well contained 0.1 mL of MH broth) followed by the final two fold dilutions of antimicrobial agent dispensed volumetrically into the broth. […] Inoculation: each well of a microdilution plate was inoculated. The purity of the inoculum suspension was checked by sub-culturing an aliquot on to MH agar plate. Colony counts on inoculum suspensions were performed periodically, to ensure that the final inoculum concentration was approximately […]. […] To prevent drying, each plate was sealed with parafilm and the plates were kept in a moist chamber while incubating at 37° C. overnight, in a shaking incubator. Determining MIC endpoints: The MIC is defined as the lowest concentration of an antimicrobial that will inhibit growth of a microorganism. The in plate dilution method the endpoint is detected by the unaided eye.

S. Aureus = assay: microbe, parasite or virus in culture
Protocol: as §1

P. Auregenosa = assay: organism not typed
Protocol: as §1

C. Albicans = assay: Broth dilution MIC against C. Albicans; conditions: Candida albicans, Monotherapy, overnight incubation
Protocol: Broth dilution method was used to measure quantitatively the in vitro activity of an antimicrobial agent against a given bacterial isolate. First, a series of tubes/wells were prepared with a broth medium to which various concentrations of the antimicrobial agents were added. The tubes/wells were then inoculated with standardized suspension of the test organism. After overnight incubation at 35±2° C., the tests were examined and the minimum inhibitory concentration (MIC) was determined. The procedures were performed under aseptic conditions. Stock culture: Stock cultures were maintained in Mueller Hinton Broth containing 15% Glycerol and stored at −80° C. Stock cultures were sub-cultured on to Mueller Hinton Agar (MHA), and incubated overnight at 37° C. […] Washing of cells: the cells were washed with PBS (pH 7.1) by centrifuging at 3000 rpm for 10 minutes. A cell suspension in Mueller Hinton broth (MHB) having a turbidity equivalent to a 0.5 McFarland turbidity standard was prepared using a Beckman Coulter DU 800 Spectrophotometer measuring at 600 nm wavelength. This is a suspension containing approximately […] of microbe. The suspension was diluted in MH broth so that, after dilution, the tube contained approximately 5×10^6 CFU/mL, and after inoculation, each well contains approximately 5×10^5 CFU/mL. Broth dilution procedure: small volumes of MH broth dispensed in sterile, polystyrene, non-pyrogenic tissue culture plates, 96 well, flat bottoms with low evaporation lid were prepared (each well contained 0.1 mL of MH broth) followed by the final two fold dilutions of antimicrobial agent dispensed volumetrically into the broth. […] Inoculation: each well of a microdilution plate was inoculated. The purity of the inoculum suspension was checked by sub-culturing an aliquot on to MH agar plate. Colony counts on inoculum suspensions were performed periodically, to ensure that the final inoculum concentration was approximately 5×10^6 CFU/mL. […] The in plate dilution method the endpoint is detected by the unaided eye.

[1] = Escherichia coli, Monotherapy, E. coli, broth dilution, overnight incubation, read-out: MIC
[2] = Staphylococcus aureus, Monotherapy, S. Aureus, broth dilution, overnight incubation, read-out: MIC
[3] = Monotherapy, P. Auregenosa, broth dilution, overnight incubation, read-out: MIC
[4] = Monotherapy, E. coli, broth dilution, overnight incubation
[5] = Monotherapy, P. Auregenosa, broth dilution, overnight incubation

With `C[C@H]1[C@H](NC(=O)/C(=N\OC(C)(C)C(=O)O)c2csc(N)n2)C(=O)N1S(=O)(=O)O` [Aztreonam] the MIC (E. coli; [1]) was 0.078 to 0.097 µg/mL (≈ 0.179 to 0.223 µM), the MIC (S. Aureus; [2]) was 625 to 1250 µg/mL (≈ 1440 to 2870 µM) and the MIC (P. Auregenosa; [3]) was 15.6 to 19 µg/mL (≈ 35.9 to 43.6 µM).

Work on `CC1(C)S[C@@H]2[C@H](NC(=O)[C@H](N)c3ccc(O)cc3)C(=O)N2[C@H]1C(=O)O` [Amoxicillin] yielded an MIC (S. Aureus; [2]) of 31.2 to 62.5 µg/mL (≈ 85.5 to 171 µM) and an MIC (P. Auregenosa; [3]) of 250 to 500 µg/mL (≈ 684 to 1370 µM).

With `[H]/N=C(\N/C(=N/[H])NCCCCCCNC(=N)NC(=N)Nc1ccc(Cl)cc1)Nc1ccc(Cl)cc1` [Chlorhexidine] the MIC (E. coli; [1]) was 3.13 to 4 µg/mL (≈ 6.19 to 7.91 µM), the MIC (S. Aureus; [2]) was 3.12 to 4 µg/mL (≈ 6.18 to 7.91 µM) and the MIC (P. Auregenosa; [3]) was 4 to 5 µg/mL (≈ 7.91 to 9.89 µM). The MIC (C. Albicans) was 3.12 to 4 µg/mL (≈ 6.18 to 7.91 µM).

Work on `Clc1ccc(COC(Cn2ccnc2)c2ccc(Cl)cc2Cl)c(Cl)c1` (stereo not drawn) [Miconazole] yielded an MIC (S. Aureus; [2]) of 45 to 90 µg/mL (≈ 108 to 216 µM) and an MIC (C. Albicans) of 1.4 to 2.8 µg/mL (≈ 3.36 to 6.73 µM).

Gentamicin showed an MIC (E. coli; [4]) of 1.25 to 2.5 µg/mL and an MIC (P. Auregenosa; [5]) of 0.625 to 1.25 µg/mL.

`O=C(O)c1cn(C2CC2)c2cc(N3CCNCC3)c(F)cc2c1=O` [Ciprofloxacin] gave an MIC (E. coli; [1]) of 0.005 to 0.0078 µg/mL (≈ 0.0151 to 0.0235 µM), an MIC (S. Aureus; [2]) of 0.156 to 0.2 µg/mL (≈ 0.471 to 0.604 µM) and an MIC (P. Auregenosa; [3]) of 0.156 to 0.25 µg/mL (≈ 0.471 to 0.754 µM). For the same compound, the MIC (C. Albicans) was over 2.5 µg/mL.

In the case of `CN[C@H](CC(C)C)C(=O)N[C@H]1C(=O)N[C@@H](CC(N)=O)C(=O)N[C@H]2C(=O)N[C@H]3C(=O)N[C@H](C(=O)N[C@H](C(=O)O)c4cc(O)cc(O)c4-c4cc3ccc4O)[C@H](O)c3ccc(c(Cl)c3)Oc3cc2cc(c3O[C@@H]2O[C@H](CO)[C@@H](O)[C@H](O)[C@H]2O[C@H]2C[C@](C)(N)[C@H](O)[C@H](C)O2)Oc2ccc(cc2Cl)[C@H]1O` [Vancomycin], the MIC (E. coli; Escherichia coli) is reported as 190 to 380 µg/mL (≈ 131 to 262 µM).

Work on `CC[C@H](C)[C@H](N)C1=N[C@H](C(=O)N[C@@H](CC(C)C)C(=O)N[C@H](CCC(=O)O)C(=O)N[C@H](C(=O)N[C@H]2CCCCNC(=O)[C@H](CC(N)=O)NC(=O)[C@@H](CC(=O)O)NC(=O)[C@H](Cc3cnc[nH]3)NC(=O)[C@@H](Cc3ccccc3)NC(=O)[C@H]([C@@H](C)CC)NC(=O)[C@@H](CCCN)NC2=O)[C@@H](C)CC)CS1` [Bacitracin] (HELM PEPTIDE1{[CC[C@H](C)[C@H](N)C1=N[C@H](C(=O)[*:2])CS1].L.[dE].I.K.[NCCC[C@@H](N[*:1])C(=O)[*:2]].I.[dF].H.[dD].N}$PEPTIDE1,PEPTIDE1,5:R3-11:R2$$$V2.0) yielded an MIC (E. coli) of 1000 to 1250 µg/mL, an MIC (S. Aureus) of 35 to 40 µg/mL and an MIC (P. Auregenosa) of 4000 to 5000 µg/mL.

Compound Polymixin B has an MIC (E. coli; [4]) of 7.8 to 10 µg/mL, an MIC (S. Aureus; Monotherapy, S. Aureus, broth dilution, overnight incubation) of 62.5 to 100.0 µg/mL and an MIC (P. Auregenosa; [5]) of 3.125 to 5.0 µg/mL.
